# Measurements from US6358885B1, “Substituted phenylheterocyclic herbicides” (Mississippi State University, priority 1992, dated 2002).
# Experiments:
# bedstraw = experiment: Test C preemergence/postemergence greenhouse plant response rating 0 to 100; format: in vivo, Galium aparine; conditions: POSTEMERGENCE; for Plant response rating, Bedstraw: 0 to 100 scale
# Procedure, shortened: (§1)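 Compounds in non-phytotoxic solvent went onto sandy loam before emergence (seeded one day earlier) or onto plants at the one-to-four leaf stage. Duck salad was treated via flood water (~2.5 cm, maintained) over silt loam.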
# giant foxtail = experiment: as above; format: in vivo, Setaria faberii; conditions: POSTEMERGENCE; for Plant response rating, Giant foxtail: 0 to 100 scale
# Procedure, shortened: as §1
# downy brome = experiment: as above; format: in vivo, Bromus tectorum; conditions: POSTEMERGENCE; for Plant response rating Downy Brome: 0 to 100 scale
# Procedure, shortened: as §1
# lambsquarters [1] = experiment: as above; format: in vivo, Chenopodium album; conditions: POSTEMERGENCE; for Plant response rating Lambsquarters: 0 to 100 scale
# Procedure, shortened: as §1
# crabgrass = experiment: as above; format: in vivo, Digitaria sanguinalis; conditions: POSTEMERGENCE; for Plant response rating, Crabgrass: 0 to 100 scale
# Procedure, shortened: as §1
# cheatgrass = experiment: Test B preemergence/postemergence greenhouse plant response rating 0 to 10; format: in vivo, Bromus secalinus; conditions: for Plant response rating, Cheatgrass: 0 to 10 scale
# Procedure, shortened: (§2)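 Planted seeds are treated preemergence with compound dissolved in a non-phytotoxic solvent, while postemergence applications go onto plants of two to eighteen cm. Plants stay in the greenhouse twelve to sixteen days and are then rated visually relative to controls.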
# cotton [2] = experiment: as above; format: in vivo, Gossypium hirsutum; conditions: for Plant response rating, Cotton: 0 to 10 scale
# Procedure, shortened: as §2
# velvetleaf = experiment: Test C preemergence/postemergence greenhouse plant response rating 0 to 100; format: in vivo, Abutilon theophrasti; conditions: POSTEMERGENCE; for Plant response rating, Velvetleaf: 0 to 100 scale
# Procedure, shortened: as §1
# rice = experiment: Test B preemergence/postemergence greenhouse plant response rating 0 to 10; format: in vivo, Oryza sativa; conditions: 0 to 10 scale
# Procedure, shortened: as §2
# wheat = experiment: as above; format: in vivo, Triticum aestivum; conditions: 0 to 10 scale
# Procedure, shortened: as §2
# corn = experiment: as above; format: in vivo, Zea mays; conditions: for Plant response rating, Corn: 0 to 10 scale
# Procedure, shortened: as §2
# barnyardgrass = experiment: Test C flood test plant response rating 0 to 100; format: in vivo, Echinochloa crus-galli; conditions: for Plant response rating (0 to 100), Barnyardgrass: under POSTEMERGENCE head (flood test species); for Plant response rating, Barnyardgrass: flood test species listed under POSTEMERGENCE, 0 to 100 scale
# Procedure, shortened: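 Compounds in non-phytotoxic solvent applied preemergence to sandy loam one day after planting, postemergence at the 1–4 leaf stage, or to ~2.5 cm floodwater over silt loam.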
# duck salad = experiment: Test C flood test plant response rating 0 to 100; format: in vivo, Heteranthera limosa; conditions: for Plant response rating Duck salad: flood test species listed under POSTEMERGENCE, 0 to 100 scale
# Procedure, shortened: as §1
# sorghum = experiment: Test C preemergence/postemergence greenhouse plant response rating 0 to 100; format: in vivo, Sorghum bicolor; conditions: POSTEMERGENCE; for Plant response rating, Sorghum: 0 to 100 scale
# Procedure, shortened: as §1
# sugar beet = experiment: as above; format: in vivo, Beta vulgaris; conditions: POSTEMERGENCE; for Plant response rating, Sugar beet: 0 to 100 scale
# Procedure, shortened: as §1
# wild oat = experiment: Test B preemergence/postemergence greenhouse plant response rating 0 to 10; format: in vivo, Avena fatua; conditions: POSTEMERGENCE, 0 to 10 scale
# Procedure, shortened: as §2
# cotton [3] = experiment: Test C preemergence/postemergence greenhouse plant response rating 0 to 100; format: in vivo, Gossypium hirsutum; conditions: POSTEMERGENCE; for Plant response rating, Cotton: 0 to 100 scale
# Procedure, shortened: as §1
# lambsquarters [4] = experiment: Test B preemergence/postemergence greenhouse plant response rating 0 to 10; format: in vivo, Chenopodium album; conditions: 0 to 10 scale
# Procedure, shortened: as §2
compound,measurement,setting,value
COc1cc(-c2nn3c(c2Cl)CCCC3)c(F)cc1Cl [Compound 29],"Plant response rating, Bedstraw",bedstraw; 62 g/ha,100
same,"Plant response rating, Bedstraw",bedstraw; 250 g/ha,100
same,"Plant response rating (0 to 100), Bedstraw",bedstraw; Rate 4 g/ha,90
same,"Plant response rating (0 to 100), Bedstraw",bedstraw; Rate 16 g/ha,100
same,"Plant response rating, Giant foxtail",giant foxtail; 62 g/ha,70
same,"Plant response rating, Giant foxtail",giant foxtail; 250 g/ha,100
same,"Plant response rating (0 to 100), Giant foxtail",giant foxtail; Rate 4 g/ha,0
same,"Plant response rating (0 to 100), Giant foxtail",giant foxtail; Rate 16 g/ha,20
same,Plant response rating Downy Brome,downy brome; 62 g/ha,80
same,Plant response rating Downy Brome,downy brome; 250 g/ha,95
same,"Plant response rating (0 to 100), Downy Brome",downy brome; Rate 4 g/ha,20
same,"Plant response rating (0 to 100), Downy Brome",downy brome; Rate 16 g/ha,60
same,Plant response rating Lambsquarters,lambsquarters [1]; 62 g/ha,100
same,Plant response rating Lambsquarters,lambsquarters [1]; 250 g/ha,100
same,"Plant response rating (0 to 100), Lambsquarters",lambsquarters [1]; Rate 4 g/ha,30
same,"Plant response rating (0 to 100), Lambsquarters",lambsquarters [1]; Rate 16 g/ha,60
same,"Plant response rating, Crabgrass",crabgrass; 62 g/ha,20
same,"Plant response rating, Crabgrass",crabgrass; 250 g/ha,50
same,"Plant response rating (0 to 100), Crabgrass",crabgrass; Rate 4 g/ha,0
same,"Plant response rating (0 to 100), Crabgrass",crabgrass; Rate 16 g/ha,20
same,"Plant response rating (0 to 10 scale), Cheatgrass","cheatgrass; POSTEMERGENCE, Rate 50 g/ha",4
same,"Plant response rating, Cheatgrass","cheatgrass; POSTEMERGENCE, Rate 200 g/ha",8
same,"Plant response rating, Cheatgrass","cheatgrass; PREEMERGENCE, Rate 50 g/ha",5
same,"Plant response rating, Cheatgrass","cheatgrass; Rate 200 g/ha, PREEMERGENCE",8
same,"Plant response rating (0 to 10 scale), Cotton","cotton [2]; POSTEMERGENCE, Rate 50 g/ha",10
same,"Plant response rating, Cotton","cotton [2]; POSTEMERGENCE, Rate 200 g/ha",10
same,"Plant response rating, Cotton","cotton [2]; PREEMERGENCE, Rate 50 g/ha",1
same,"Plant response rating, Cotton","cotton [2]; Rate 200 g/ha, PREEMERGENCE",7
same,"Plant response rating, Velvetleaf",velvetleaf; 62 g/ha,100
same,"Plant response rating, Velvetleaf",velvetleaf; 250 g/ha,100
same,"Plant response rating (0 to 100), Velvetleaf",velvetleaf; Rate 4 g/ha,50
same,"Plant response rating (0 to 100), Velvetleaf",velvetleaf; Rate 16 g/ha,100
same,"Plant response rating, Rice","rice; POSTEMERGENCE, Rate 50 g/ha",4
same,"Plant response rating, Rice","rice; PREEMERGENCE, Rate 50 g/ha",0
same,"Plant response rating, Rice","rice; Rate 200 g/ha, POSTEMERGENCE",7
same,"Plant response rating, Rice","rice; Rate 200 g/ha, PREEMERGENCE",2
same,"Plant response rating, Wheat","wheat; POSTEMERGENCE, Rate 50 g/ha",4
same,"Plant response rating, Wheat","wheat; PREEMERGENCE, Rate 50 g/ha",0
same,"Plant response rating, Wheat","wheat; Rate 200 g/ha, POSTEMERGENCE",6
same,"Plant response rating, Wheat","wheat; Rate 200 g/ha, PREEMERGENCE",4
same,"Plant response rating (0 to 10 scale), Corn","corn; POSTEMERGENCE, Rate 50 g/ha",6
same,"Plant response rating, Corn","corn; POSTEMERGENCE, Rate 200 g/ha",7
same,"Plant response rating, Corn","corn; PREEMERGENCE, Rate 50 g/ha",0
same,"Plant response rating, Corn","corn; Rate 200 g/ha, PREEMERGENCE",6
same,"Plant response rating (0 to 100), Barnyardgrass",barnyardgrass; Rate 4 g/ha,100
same,"Plant response rating (0 to 100), Barnyardgrass",barnyardgrass; Rate 16 g/ha,100
same,"Plant response rating, Barnyardgrass",barnyardgrass; 62 g/ha,100
same,"Plant response rating, Barnyardgrass",barnyardgrass; 250 g/ha,100
same,"Plant response rating (0 to 100), Duck salad","duck salad; POSTEMERGENCE section, flood test, Rate 4 g/ha",20
same,"Plant response rating (0 to 100), Duck salad","duck salad; Rate 16 g/ha, under POSTEMERGENCE head (flood test species)",85
same,Plant response rating Duck salad,duck salad; 62 g/ha,95
same,Plant response rating Duck salad,duck salad; 250 g/ha,100
same,"Plant response rating, Sorghum",sorghum; 62 g/ha,20
same,"Plant response rating, Sorghum",sorghum; 250 g/ha,50
same,"Plant response rating (0 to 100), Sorghum",sorghum; Rate 4 g/ha,0
same,"Plant response rating (0 to 100), Sorghum",sorghum; Rate 16 g/ha,0
same,"Plant response rating, Sugar beet",sugar beet; 62 g/ha,100
same,"Plant response rating, Sugar beet",sugar beet; 250 g/ha,100
same,"Plant response rating (0 to 100), Sugar beet",sugar beet; Rate 16 g/ha,90
same,"Plant response rating, Wild oat",wild oat; Rate 50 g/ha,5
same,"Plant response rating, Wild oat",wild oat; Rate 200 g/ha,7
same,"Plant response rating, Cotton",cotton [3]; 62 g/ha,100
same,"Plant response rating, Cotton",cotton [3]; 250 g/ha,100
same,"Plant response rating (0 to 100), Cotton",cotton [3]; Rate 4 g/ha,100
same,"Plant response rating (0 to 100), Cotton",cotton [3]; Rate 16 g/ha,100
same,"Plant response rating, Lambsquarter","lambsquarters [4]; POSTEMERGENCE, Rate 50 g/ha",10
same,"Plant response rating, Lambsquarter","lambsquarters [4]; PREEMERGENCE, Rate 50 g/ha",10
same,"Plant response rating, Lambsquarter","lambsquarters [4]; Rate 200 g/ha, POSTEMERGENCE",10
same,"Plant response rating, Lambsquarter","lambsquarters [4]; Rate 200 g/ha, PREEMERGENCE",10
